Laboratory results taken from patent US10875875B2, “Propionic acid derivatives and methods of use thereof” (Aviara Pharmaceuticals, Inc., priority 2017, dated 2020).

Biological target: α4β1 (Homo sapiens, UniProt P05556+P13612)
Experiment: α4β1 integrin inhibition, IC50
Assay type: binding
Settings: read-out: α4β1 IC50

Sequence of α4β1 (P13612 34-1032): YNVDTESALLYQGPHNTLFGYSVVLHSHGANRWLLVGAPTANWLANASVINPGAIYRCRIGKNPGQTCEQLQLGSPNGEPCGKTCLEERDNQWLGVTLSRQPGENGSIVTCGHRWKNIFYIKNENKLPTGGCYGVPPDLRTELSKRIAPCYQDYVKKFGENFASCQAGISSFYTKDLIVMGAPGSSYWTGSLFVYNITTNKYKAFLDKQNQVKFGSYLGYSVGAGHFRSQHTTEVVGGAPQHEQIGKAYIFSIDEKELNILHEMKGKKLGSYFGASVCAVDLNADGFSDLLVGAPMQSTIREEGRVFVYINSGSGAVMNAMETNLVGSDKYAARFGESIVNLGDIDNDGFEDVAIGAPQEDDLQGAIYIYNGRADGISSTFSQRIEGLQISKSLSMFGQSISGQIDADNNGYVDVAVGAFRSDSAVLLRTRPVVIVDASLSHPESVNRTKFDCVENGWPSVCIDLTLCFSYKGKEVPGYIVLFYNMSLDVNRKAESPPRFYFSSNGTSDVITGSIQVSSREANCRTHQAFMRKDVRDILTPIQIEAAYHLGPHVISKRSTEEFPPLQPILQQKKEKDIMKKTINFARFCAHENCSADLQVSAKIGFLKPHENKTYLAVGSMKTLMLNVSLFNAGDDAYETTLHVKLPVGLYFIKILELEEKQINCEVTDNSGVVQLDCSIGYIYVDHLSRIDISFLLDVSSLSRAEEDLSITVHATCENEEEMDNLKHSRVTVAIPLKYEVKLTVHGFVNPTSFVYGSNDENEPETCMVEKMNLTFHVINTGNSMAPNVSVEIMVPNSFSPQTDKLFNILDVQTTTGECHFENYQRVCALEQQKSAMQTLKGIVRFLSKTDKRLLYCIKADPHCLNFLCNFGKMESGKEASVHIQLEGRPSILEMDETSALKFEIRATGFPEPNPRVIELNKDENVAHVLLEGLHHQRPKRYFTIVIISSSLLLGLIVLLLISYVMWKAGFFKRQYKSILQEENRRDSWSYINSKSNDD
Sequence of α4β1 (P05556 21-798): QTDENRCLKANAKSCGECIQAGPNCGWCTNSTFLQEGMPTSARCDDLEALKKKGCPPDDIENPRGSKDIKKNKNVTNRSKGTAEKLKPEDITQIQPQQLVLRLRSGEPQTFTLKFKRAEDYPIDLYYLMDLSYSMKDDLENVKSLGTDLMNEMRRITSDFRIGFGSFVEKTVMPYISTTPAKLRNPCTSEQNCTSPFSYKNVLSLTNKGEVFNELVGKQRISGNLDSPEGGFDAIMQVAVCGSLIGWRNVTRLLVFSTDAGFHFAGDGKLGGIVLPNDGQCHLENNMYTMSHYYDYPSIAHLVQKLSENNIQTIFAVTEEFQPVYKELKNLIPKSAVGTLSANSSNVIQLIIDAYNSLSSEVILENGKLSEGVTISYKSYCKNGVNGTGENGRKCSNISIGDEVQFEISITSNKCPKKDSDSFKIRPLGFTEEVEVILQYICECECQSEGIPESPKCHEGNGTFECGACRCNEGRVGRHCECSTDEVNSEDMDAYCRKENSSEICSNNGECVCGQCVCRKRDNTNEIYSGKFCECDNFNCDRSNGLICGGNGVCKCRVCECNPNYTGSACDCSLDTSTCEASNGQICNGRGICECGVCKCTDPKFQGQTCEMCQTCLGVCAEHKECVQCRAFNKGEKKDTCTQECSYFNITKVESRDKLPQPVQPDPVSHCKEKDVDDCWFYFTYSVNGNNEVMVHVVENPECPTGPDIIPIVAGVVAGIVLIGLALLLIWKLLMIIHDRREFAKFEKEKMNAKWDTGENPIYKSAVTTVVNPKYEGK

SMILES: Cn1ccc(O)c(NC(=O)N[C@@H](CC(=O)O)c2cccc(-c3ccc(OC(F)(F)F)cc3)c2)c1=O [1-510, sodium (S)-3-(3-(1-methyl-4-oxido-2-oxo-1,2-dihydropyridin-3-yl)ureido)-3-(4′-(trifluoromethoxy)biphenyl-3-yl)propanoate]
- IC50: < 20 nM

SMILES: Cc1cn(C)c(=O)c(NC(=O)NC(CC(=O)O)c2cccc(-c3ccc(Cl)cc3Cl)c2)c1O (stereo not drawn) [1-511, sodium 3-(2′,4′-dichlorobiphenyl-3-yl)-3-(3-(1,5-dimethyl-4-oxido-2-oxo-1,2-dihydropyridin-3-yl)ureido)propanoate]
- IC50: < 200 nM

SMILES: Cn1ccc(O)c(NC(=O)N[C@@H](CC(=O)O)c2cccc(-c3ccccc3OC(F)(F)F)c2)c1=O [1-512, sodium (S)-3-(3-(1-methyl-4-oxido-2-oxo-1,2-dihydropyridin-3-yl)ureido)-3-(2′-(trifluoromethoxy)biphenyl-3-yl)propanoate]
- IC50: < 20 nM

SMILES: Cn1c2c(c(O)c(NC(=O)N[C@@H](CC(=O)O)c3cccc(-c4ccc(F)cc4F)c3)c1=O)CCC2 [1-513, sodium (S)-3-(2′,4′-difluorobiphenyl-3-yl)-3-(3-(1-methyl-4-oxido-2-oxo-2,5,6,7-tetrahydro-1H-cyclopenta[b]pyridin-3-yl)ureido)propanoate]
- IC50: < 20 nM

SMILES: Cn1ccc(O)c(NC(=O)N[C@@H](CC(=O)O)c2cccc(-c3cccc(OC(F)(F)F)c3)c2)c1=O [1-514, sodium (S)-3-(3-(1-methyl-4-oxido-2-oxo-1,2-dihydropyridin-3-yl)ureido)-3-(3′-(trifluoromethoxy)biphenyl-3-yl)propanoate]
- IC50: < 20 nM

SMILES: Cn1c(=O)c(NC(=O)N[C@@H](CC(=O)O)c2cccc(-c3ccc(F)cc3F)c2)c(O)c2sccc21 [1-515, sodium (S)-3-(2′,4′-difluorobiphenyl-3-yl)-3-(3-(4-methyl-7-oxido-5-oxo-4,5-dihydrothieno[3,2-b]pyridin-6-yl)ureido)propanoate]
- IC50: < 20 nM

SMILES: Cn1ccc(O)c(NC(=O)N[C@@H](CC(=O)O)c2cccc(-c3ccc4c(c3)OCO4)c2)c1=O [1-516, sodium (S)-3-(3-(benzo[d][1,3]dioxol-5-yl)phenyl)-3-(3-(1-methyl-4-oxido-2-oxo-1,2-dihydropyridin-3-yl)ureido)propanoate]
- IC50: < 20 nM

SMILES: Cc1cn(C)c(=O)c(NC(=O)N[C@@H](CC(=O)O)c2cccc(-c3ccc4c(c3)OCO4)c2)c1O [1-517, sodium (S)-3-(3-(benzo[d][1,3]dioxol-5-yl)phenyl)-3-(3-(1,5-dimethyl-4-oxido-2-oxo-1,2-dihydropyridin-3-yl)ureido)propanoate]
- IC50: < 20 nM

SMILES: Cn1ccc(O)c(NC(=O)N[C@@H](CC(=O)O)c2cccc(-n3ncc4ccccc43)c2)c1=O [1-518, sodium (S)-3-(3-(1H-indazol-1-yl)phenyl)-3-(3-(1-methyl-4-oxido-2-oxo-1,2-dihydropyridin-3-yl)ureido)propanoate]
- IC50: < 20 nM

SMILES: COc1ccc([C@H](CC(=O)O)NC(=O)Nc2c(O)ccn(C)c2=O)cc1-c1ccc(F)cc1F [1-519, sodium (S)-3-(2′,4′-difluoro-6-methoxybiphenyl-3-yl)-3-(3-(1-methyl-4-oxido-2-oxo-1,2-dihydropyridin-3-yl)ureido)propanoate]
- IC50: < 20 nM

SMILES: CCn1ccc2ccc(-c3cccc([C@H](CC(=O)O)NC(=O)Nc4c(O)ccn(C)c4=O)c3)cc21 [1-521, sodium (S)-3-(3-(1-ethyl-1H-indol-6-yl)phenyl)-3-(3-(1-methyl-4-oxido-2-oxo-1,2-dihydropyridin-3-yl)ureido)propanoate]
- IC50: < 20 nM

SMILES: Cn1ccc(O)c(NC(=O)N[C@@H](CC(=O)O)c2cccc(-n3cccn3)c2)c1=O [1-522, sodium (S)-3-(3-(1H-pyrazol-1-yl)phenyl)-3-(3-(1-methyl-4-oxido-2-oxo-1,2-dihydropyridin-3-yl)ureido)propanoate]
- IC50: < 20 nM

SMILES: Cn1ccc(O)c(NC(=O)N[C@@H](CC(=O)O)c2cc(-c3ccc(F)cc3F)cs2)c1=O [1-523, sodium (S)-3-(4-(2,4-difluorophenyl)thiophen-2-yl)-3-(3-(1-methyl-4-oxido-2-oxo-1,2-dihydropyridin-3-yl)ureido)propanoate]
- IC50: < 20 nM

SMILES: COc1cccc(-c2cc([C@H](CC(=O)O)NC(=O)Nc3c(O)ccn(C)c3=O)ccc2OC)c1 [1-524, sodium (S)-3-(3′,6-dimethoxybiphenyl-3-yl)-3-(3-(1-methyl-4-oxido-2-oxo-1,2-dihydropyridin-3-yl)ureido)propanoate]
- IC50: < 20 nM

SMILES: Cn1c(=O)c(NC(=O)N[C@@H](CC(=O)O)c2cccc(-c3ccc(F)cc3F)c2)c(O)c2cccnc21 [1-526, sodium (S)-3-(2′,4′-difluorobiphenyl-3-yl)-3-(3-(1-methyl-4-oxido-2-oxo-1,2-dihydro-1,8-naphthyridin-3-yl)ureido)propanoate]
- IC50: < 200 nM

SMILES: COc1cccc(-c2csc([C@H](CC(=O)O)NC(=O)Nc3c(O)ccn(C)c3=O)c2)c1 [1-528, sodium (S)-3-(4-(3-methoxyphenyl)thiophen-2-yl)-3-(3-(1-methyl-4-oxido-2-oxo-1,2-dihydropyridin-3-yl)ureido)propanoate]
- IC50: < 20 nM

SMILES: COc1ccc([C@H](CC(=O)O)NC(=O)Nc2c(O)ccn(C)c2=O)cc1-c1ccccc1 [1-529, sodium (S)-3-(6-methoxybiphenyl-3-yl)-3-(3-(1-methyl-4-oxido-2-oxo-1,2-dihydropyridin-3-yl)ureido)propanoate]
- IC50: < 20 nM

SMILES: Cn1ccc(O)c(NC(=O)N[C@@H](CC(=O)O)c2cc(-c3cccc(Cl)c3)cs2)c1=O [1-530, sodium (S)-3-(4-(3-chlorophenyl)thiophen-2-yl)-3-(3-(1-methyl-4-oxido-2-oxo-1,2-dihydropyridin-3-yl)ureido)propanoate]
- IC50: < 20 nM

SMILES: CCn1ccc(O)c(NC(=O)N[C@@H](CC(=O)O)c2cccc(-c3ccc(F)cc3F)c2)c1=O [1-531, sodium (S)-3-(2′,4′-difluorobiphenyl-3-yl)-3-(3-(1-ethyl-4-oxido-2-oxo-1,2-dihydropyridin-3-yl)ureido)propanoate]
- IC50: < 20 nM

SMILES: Cn1ccc(O)c(NC(=O)N[C@@H](CC(=O)O)c2cccc(-c3cccs3)c2)c1=O [1-532, sodium (S)-3-(3-(1-methyl-4-oxido-2-oxo-1,2-dihydropyridin-3-yl)ureido)-3-(3-(thiophen-2-yl)phenyl)propanoate]
- IC50: < 20 nM

SMILES: COc1ccc([C@H](CC(=O)O)NC(=O)Nc2c(O)ccn(C)c2=O)cc1-c1cccc(Cl)c1 [1-534, sodium (S)-3-(3′-chloro-6-methoxybiphenyl-3-yl)-3-(3-(1-methyl-4-oxido-2-oxo-1,2-dihydropyridin-3-yl)ureido)propanoate]
- IC50: < 20 nM

SMILES: COc1ccc([C@H](CC(=O)O)NC(=O)Nc2c(O)ccn(C)c2=O)cc1-c1cccc(OC(F)(F)F)c1 [1-535, sodium (S)-3-(6-methoxy-3′-(trifluoromethoxy)biphenyl-3-yl)-3-(3-(1-methyl-4-oxido-2-oxo-1,2-dihydropyridin-3-yl)ureido)propanoate]
- IC50: < 20 nM

SMILES: COc1ccc([C@H](CC(=O)O)NC(=O)Nc2c(O)ccn(C)c2=O)cc1-c1ccc(OC(F)(F)F)cc1 [1-536, sodium (S)-3-(6-methoxy-4′-(trifluoromethoxy)biphenyl-3-yl)-3-(3-(1-methyl-4-oxido-2-oxo-1,2-dihydropyridin-3-yl)ureido)propanoate]
- IC50: < 20 nM

SMILES: Cn1ccc(O)c(NC(=O)N[C@@H](CC(=O)O)c2cccc(-c3ccc(Cl)s3)c2)c1=O [1-538, sodium (S)-3-(3-(5-chlorothiophen-2-yl)phenyl)-3-(3-(1-methyl-4-oxido-2-oxo-1,2-dihydropyridin-3-yl)ureido)propanoate]
- IC50: < 20 nM

SMILES: Cn1ccc(O)c(NC(=O)N[C@@H](CC(=O)O)c2cccc(-n3ccnc3)c2)c1=O [1-539, sodium (S)-3-(3-(1H-imidazol-1-yl)phenyl)-3-(3-(1-methyl-4-oxido-2-oxo-1,2-dihydropyridin-3-yl)ureido)propanoate]
- IC50: < 20 nM

SMILES: Cc1cscc1-c1cccc([C@H](CC(=O)O)NC(=O)Nc2c(O)ccn(C)c2=O)c1 [1-540, sodium (S)-3-(3-(1-methyl-4-oxido-2-oxo-1,2-dihydropyridin-3-yl)ureido)-3-(3-(4-methylthiophen-3-yl)phenyl)propanoate]
- IC50: < 20 nM

SMILES: Cc1ccc([C@H](CC(=O)O)NC(=O)Nc2c(O)ccn(C)c2=O)cc1-c1ccc(F)cc1F [1-541, sodium (S)-3-(2′,4′-difluoro-6-methylbiphenyl-3-yl)-3-(3-(1-methyl-4-oxido-2-oxo-1,2-dihydropyridin-3-yl)ureido)propanoate]
- IC50: < 20 nM

SMILES: COc1cccc(-c2cc([C@H](CC(=O)O)NC(=O)Nc3c(O)ccn(C)c3=O)ccc2C)c1 [1-542, sodium (S)-3-(3′-methoxy-6-methylbiphenyl-3-yl)-3-(3-(1-methyl-4-oxido-2-oxo-1,2-dihydropyridin-3-yl)ureido)propanoate]
- IC50: < 20 nM

SMILES: Cn1ccc(O)c(NC(=O)N[C@@H](CC(=O)O)c2cccc(-c3cc[nH]c3)c2)c1=O [1-544, sodium (S)-3-(3-(1H-pyrrol-3-yl)phenyl)-3-(3-(1-methyl-4-oxido-2-oxo-1,2-dihydropyridin-3-yl)ureido)propanoate]
- IC50: < 20 nM

SMILES: Cc1ccc([C@H](CC(=O)O)NC(=O)Nc2c(O)ccn(C)c2=O)cc1-c1c(C)cccc1C [1-545, sodium (S)-3-(3-(1-methyl-4-oxido-2-oxo-1,2-dihydropyridin-3-yl)ureido)-3-(2′,6,6′-trimethylbiphenyl-3-yl)propanoate]
- IC50: < 20 nM

SMILES: Cn1ccc(O)c(NC(=O)N[C@@H](CC(=O)O)c2ccc(F)c(-c3c(F)cccc3F)c2)c1=O [1-546, sodium (S)-3-(3-(1-methyl-4-oxido-2-oxo-1,2-dihydropyridin-3-yl)ureido)-3-(2′,6,6′-trifluorobiphenyl-3-yl)propanoate]
- IC50: < 20 nM

SMILES: COc1cccc(-c2cc([C@H](CC(=O)O)NC(=O)Nc3c(O)ccn(C)c3=O)ccc2F)c1 [1-547, sodium (S)-3-(6-fluoro-3′-methoxybiphenyl-3-yl)-3-(3-(1-methyl-4-oxido-2-oxo-1,2-dihydropyridin-3-yl)ureido)propanoate]
- IC50: < 20 nM

SMILES: Cn1cc(-c2cccc([C@H](CC(=O)O)NC(=O)Nc3c(O)ccn(C)c3=O)c2)cn1 [1-548, sodium (S)-3-(3-(1-methyl-1H-pyrazol-4-yl)phenyl)-3-(3-(1-methyl-4-oxido-2-oxo-1,2-dihydropyridin-3-yl)ureido)propanoate]
- IC50: < 20 nM
